This is an account of results in paper PMC8565515, “Dasabuvir Inhibits Human Norovirus Infection in Human Intestinal Enteroids” (mSphere, 2021).

For data set [1], the system named is GII.4 HuNoV. The data set can be described thus: GII.4 HuNoV infection of HIE monolayers, viral genome equivalents by RT-qPCR. Type of data set: cell-based, human norovirus. Particulars: for activity at 10 µM / pEC50: Norovirus; for activity at 10 µM: 24 h, read-out: (%) HuNoV GEs. For orientation: Real-time PCR tracks product formation cycle by cycle.
The test system of data set [2] is GII.3 HuNoV. Nature of the data set: microbe, parasite or virus in culture. Format: cell-based, human norovirus. The settings on record: Norovirus, read-out: EC50, HuNoV GEs.
In data set [3] the test system is J2 HIE monolayers. Type of data set: cell-based. Particulars: human, 20 h, 50 μM. As to the method: Supplementary file : FIG S2 Cell viability and cytotoxicity of dasabuvir in J2 HIE monolayers. J2 HIE monolayers were treated with DSB at the indicated concentrations for 20 h. Cell viability or cytotoxicity was measured using CellTiter-Glo luminescent cell viability assay or the Cytotoxicity LDH assay kit-WST, respectively. Results were normalized to DMSO control. Values represent the mean ± SD (n = 7). Download FIG S2, TIF file, 0.8 MB.

In data set [4] the test system is human rotavirus A (RVA) Wa strain. Type of data set: cell-based. The settings on record: 20 μM, J2 HIE monolayers, 20 hpi.
Data set [5] deals with SARS-CoV-2. Format: cell-based. Particulars: VeroE6/TMPRSS2 cells, 20 h.
Data set [6] has as its system VeroE6/TMPRSS2 cells. Particulars: 20 h.
For data set [7], the system named is HCV of genotype 1. Further details: method as in PMID 25534735. The settings on record: HCV genotype 1 subgenomic replicon; cited from earlier work. (In general: In antiviral work, replicon cells carry a viral genome segment that copies itself.)
For data set [8] the following is noted: healthy volunteers, 1,000 mg twice a day [BID] for 10 days; read-out: maximum plasma concentration (Cmax); cited from earlier work.
For data set [9], the system named is RdRp of Middle East respiratory syndrome coronavirus (MERS-CoV). Particulars: cited from earlier work.
Data set [10] concerns J2 HIE monolayers. The data set can be described thus: Cytotoxicity by LDH assay in J2 HIE monolayers. The settings on record: for (%) Cytotoxicity: compound 10 μM, n = 1, LDH assay, J2 HIE monolayers infected with GII.4 HuNoV, 24 hpi, normalized to DMSO control.
For data set [11], the system named is SARS-CoV-2 (WK-521). The data set can be described thus: SARS-CoV-2 infection of J2 HIE monolayers, viral GEs by RT-qPCR. The settings on record: 20 μM, 20 hpi.
The mark [12] stands for this setting: compound 10 μM, n = 1, J2 HIE monolayers, GII.4 HuNoV, 24 hpi, normalized to DMSO control.

pEC50: −log10 of the molar value. Structures can show the parent of a compound that is named as a salt. Where two headings read alike, the source gives them in different places.

By pEC50 is commonly meant the negative decadic logarithm of the EC50, by convention in mol/L.

Consider `COc1c(-c2ccc3cc(NS(C)(=O)=O)ccc3c2)cc(-n2ccc(=O)[nH]c2=O)cc1C(C)(C)C` [Dasabuvir], for which the activity at 10 µM in data set [1] (setting [12]) was 1.14%. The pEC50 in [1] (J2 + GII.4, 20 hpi, read-out: EC50, HuNoV GEs) is 4.93; in data set [1] (J3 + GII.4, 20 hpi, read-out: EC50, HuNoV GEs) it was 4.91; in data set [1] (range over GII.4 and GII.3 HuNoV in J2 and J3 HIEs (Fig. 2), read-out: EC50 values, HuNoV infection), 4.91 to 5.12; in [2] (J2 + GII.3, 20 hpi), 5.12; in data set [2] (J3 + GII.3, 20 hpi) it was 5.01; in data set [7], > 8.00. Besides, the “reduction of cellular ATP (cell viability)” value in [3] is listed as 17%. The “fold decrease of RVA infection (viral GEs)” value in data set [4] worked out at 2.75 fold. Also, the “effect on SARS-CoV-2 infection” value in data set [5] is recorded as “inhibition”. In data set [6], the cytotoxicity entry is recorded as “no cytotoxicity”. Moreover, in data set [8], the Cmax is ~5.61 µM. In data set [9], the “inhibition of RdRp activity” value is “partially inhibits”. For the same compound, the “increase of LDH release (cytotoxicity)” value in [10] (50 μM, 20 h, uninfected J2 monolayers, compared to DMSO control) is on record as 10%. Besides, the “(%) Cytotoxicity” value in data set [10] was -4.83%. Moreover, the “fold decrease of SARS-CoV-2 infection (viral GEs)” value in data set [11] was determined as 26.9 fold.

In the case of `CC(N)C12CC3CC(CC(C3)C1)C2` (stereo not shown) [Rimantadine hydrochloride], the activity at 10 µM in data set [1] (setting [12]) stood at 40.9%. Besides, the “(%) Cytotoxicity” value in data set [10] is 2.41%.

For the compound `COc1ccc(C2CNC(=O)C2)cc1OC1CCCC1` (stereo not shown) [Rolipram], in [1] (setting [12]), the activity at 10 µM was determined as 78.7%. Besides, in data set [10], the “(%) Cytotoxicity” value is listed as -0.46%.

For the compound `CC(C)OC(=O)[C@H](C)N[P@](=O)(OC[C@H]1O[C@@H](n2ccc(=O)[nH]c2=O)[C@](C)(F)[C@@H]1O)Oc1ccccc1` [Sofosbuvir], the activity at 10 µM in [1] (setting [12]) amounted to 22.6%. The “(%) Cytotoxicity” value in data set [10] is reported as 0.74%.

`CN[C@@H]1[C@H](O)[C@H](NC)[C@H]2O[C@@]3(O)C(=O)C[C@@H](C)O[C@H]3O[C@@H]2[C@H]1O.Cl.Cl` [Spectinomycin dihydrochloride]: in data set [1] (setting [12]), the “(%) HuNoV GEs” value is 109.17%. The “(%) Cytotoxicity” value in data set [10] was -1.44%.

Turning to `CC(C)OC(=O)[C@H](C)N[P@](=O)(CO[C@H](C)Cn1cnc2c(N)ncnc21)Oc1ccccc1` [Tenofovir alafenamide], the activity at 10 µM in data set [1] stood at 55.2%. Besides, in [10], the “(%) Cytotoxicity” value is -0.20%.

Take `CN(C)[C@@H]1C(O)=C(C(N)=O)C(=O)[C@@]2(O)C(O)=C3C(=O)c4c(O)cccc4[C@@](C)(O)[C@H]3C[C@@H]12` [Tetracycline]: in data set [1] (setting [12]), the activity at 10 µM came out at 108%. In addition, the “(%) Cytotoxicity” value in [10] worked out at 0.09%.

Regarding `O=C(Nc1ncc([N+](=O)[O-])s1)c1ccccc1O` [Tizoxanide], the activity at 10 µM in [1] (setting [12]) was determined as 40%. Also, the “(%) Cytotoxicity” value in [10] is given as 2.28%.

Take `CC(C)OC(=O)C1=CN(C(=O)c2ccc(F)c(F)c2)CC(C)(C)c2c1[nH]c1ccccc21` [Turofexorate Isopropyl]: in data set [1] (setting [12]), the activity at 10 µM stood at 31.9%. Further, the “(%) Cytotoxicity” value in data set [10] came out at 0.86%.

`COC[C@H]1C[C@@H](c2ncc(-c3ccc4c(c3)COc3cc5c(ccc6nc([C@@H]7CC[C@H](C)N7C(=O)[C@@H](NC(=O)OC)C(C)C)[nH]c65)cc3-4)[nH]2)N(C(=O)[C@H](NC(=O)OC)c2ccccc2)C1` [Velpatasvir]: in data set [1] (setting [12]), the activity at 10 µM came to 59.8%. Besides, in data set [10], the “(%) Cytotoxicity” value was 1.45%.

With `O=C(/C=C\n1cnc(-c2cc(C(F)(F)F)cc(C(F)(F)F)c2)n1)NNc1ccccn1` [Verdinexor], the activity at 10 µM in data set [1] (setting [12]) is 142%. In addition, the “(%) Cytotoxicity” value in [10] is 10.81%.

For the compound `COc1cc(O)c(CC=C(C)C)c(O)c1C(=O)/C=C/c1ccc(O)cc1` [Xanthohumol], the activity at 10 µM in data set [1] (setting [12]) came out at 67.3%. For the same compound, the “(%) Cytotoxicity” value in data set [10] amounted to 2.40%.

As to Vitamin E, the “(%) HuNoV GEs” value in [1] (setting [12]) was determined as 125.47%. Also, the “(%) Cytotoxicity” value in data set [10] is listed as -0.33%.
